Results taken from publication PMC8000724, “Trans-Epithelial Transport, Metabolism, and Biological Activity Assessment of the Multi-Target Lupin Peptide [sequence] (P5) and Its Metabolite [sequence] (P5-Met)” (Nutrients, 2021).

Key:
Type in all cases: cell-based, human
[1] = tested on: LDLR on HepG2 cell surface; test: In-cell Western (ICW) assay, LDLR localized on HepG2 cell surface
Procedure: For the experiments, a total of 3 × 10^4 HepG2 cells/well were seeded in 96-well plates. The following day, cells were washed with PBS and then starved overnight (O/N) in DMEM without FBS and antibiotics. After starvation, HepG2 cells were treated with 4.0 μg/mL PCSK9-WT and 4.0 μg/mL PCSK9 + peptides P5 and/or P5-met (50 µM) and vehicle (H2O) for 2 h at 37 °C under 5% CO2 atmosphere. Subsequently, they were fixed in 4% paraformaldehyde for 20 min at room temperature (RT). Cells were washed 5 times with 100 µL of PBS/well (each wash was for 5 min at RT) and the endogenous peroxides activity quenched adding 3% H2O2 for 20 min at RT. Non-specific sites were blocked with 100 µL/well of 5% bovine serum albumin (BSA, Sigma) in PBS for 1.5 h at RT. LDLR primary antibody solution (1:3000 in 5% BSA in PBS, 25 µL/well) was incubated O/N at +4 °C. Subsequently, the primary antibody solution was discarded and each sample was washed 5 times with 100 µL/well of PBS (each wash was for 5 min at RT). Goat anti-rabbit Ig-HRP secondary antibody solution (Santa Cruz) (1:6000 in 5% BSA in PBS, 50 µL/well), was added and incubated 1 h at RT. The secondary antibody solution was washed 5 times with 100 µL/well of PBS (each wash for 5 min at RT). Freshly prepared TMB substrate (Pierce, 100 µL/well) was added and the plate was incubated at RT until desired color was developed. The reaction was stopped with 2 M H2SO4 and then the absorbance at 450 nm was measured using the microplate reader Synergy H1 (Winooski, VT, USA). After the read, cells were stained by adding 1× Janus Green stain, incubating for 5 min at RT. The dye was removed and the sample washed 5 times with water. Afterward 100 µL 0.5 M HCl for well were added and incubated for 10 min. After 10 seconds shaking, the OD at 595 nm was measured using the microplate reader Synergy H1 (Winooski, VT, USA).

[2] = tested on: LDLR; test: Western blot, LDLR protein level in HepG2 cells; conditions: HepG2, 50 µM, 24 h, mean ± SD
Procedure: (§1) The HepG2 cell line was bought from ATCC (HB-8065, ATCC from LGC Standards, Milan, Italy) and was cultured in DMEM high glucose with stable L-glutamine, supplemented with 10% FBS, 100 U/mL penicillin, 100 µg/mL streptomycin (complete growth medium) with incubation at 37 °C under 5% CO2 atmosphere.
(§2) Immunoblotting experiments were performed using optimized protocol. A total of 1.5 × 10^5 HepG2 cells/well (24-well plate) were treated with 50 μM of P5 and P5-met for 24 h. After each treatment, the supernatants were collected and stored at −20°C; cells were scraped in 40 µL ice-cold lysis buffer (RIPA buffer + inhibitor cocktail + 1:100 PMSF + 1:100 Na-orthovanadate + 1:1000 β-mercaptoethanol) and transferred in ice-cold microcentrifuge tubes. […] Total proteins were quantified by the Bradford’s method and 50 μg of total proteins loaded on a pre-cast 7.5% Sodium Dodecyl Sulfate-Polyacrylamide (SDS-PAGE) gel at 130 V for 45 min. […] Target proteins, on milk or BSA blocked membrane, were detected by primary antibodies as follows: anti-SREBP-2, anti-LDLR, anti-HMGCoAR, anti-PCSK9, anti HNF1-α and anti-β-actin. Secondary antibodies conjugated with HRP and a chemiluminescent reagent were used to visualize target proteins and their signal was quantified using the Image Lab Software (Biorad, Hercules, CA, USA). […]

[3] = tested on: secreted mature PCSK9; test: Quantification of PCSK9 secreted by HepG2 cells through ELISA; conditions: HepG2 supernatants, 50 µM, mean ± SD
Procedure: The supernatants collected from treated HepG2 cells (50.0 μM of P5 and/or P5-met) were centrifuged at 600 × g for 10 min at 4 °C and ELISA assay performed using protocol already optimized. They were recovered and diluted to the ratio 1:10 with DMEM in a new ice-cold tube. PCSK9 was quantified by ELISA (R&D System, Minneapolis, MN, USA). Briefly, the experiments were carried out at 37 °C, following the manufacturer’s instructions. Before starting the assay, human PCSK9 standard curve (20.0, 10.0, 5.0, 2.5, 1.25, and 0.625 ng/mL) was prepared by serial dilutions from a 40 ng/mL stock. 100 µL of the Assay Diluent RD1-9 (provided into the kit) were placed in each well, before adding the standards and the samples (50 µL) and incubating the ELISA plate for 2 h at RT. Subsequently, wells were washed 4 times with the wash buffer, and 200 µL of human PCSK9-conjugate (HRP-labelled anti-PCSK9) was added to each well for 2 h at RT. Following aspiration, wells was washed 4 times with the kit wash buffer. After the last wash, 200 µL of substrate solution were added to the wells and allowed to incubate for 30 min at RT. The reaction was stopped with 50 µL of the stop solution (2 M sulfuric acid) and the absorbance at 450 nm was measured using Synergy H1 microplate (Winooski, VT, USA).

[4] = tested on: SREBP-2; test: Western blot, SREBP-2 protein level in HepG2 cells; conditions: HepG2, 50 µM, 24 h, mean ± SD
Procedure: as §1, §2

[5] = tested on: PCSK9; test: Western blot, PCSK9 protein level in HepG2 cells; conditions: HepG2, 50 µM, 24 h, mean ± SD
Procedure: as §1, §2

H-LPKHSDAD-OH [Peptide P5-met]
LDLR localized on the cellular membranes of HepG2 cells versus the control ([1]; HepG2, 50 µM, without added PCSK9, mean ± SD): 145.2 ±15.2% | LDLR level on HepG2 cell surface restored, co-incubation with PCSK9 ([1]; peptide 50 µM + PCSK9 4 µg/mL, 2 h, % of control, mean ± SD): 90.1 ± 0.1% | LDLR protein level versus the control [2]: 150.4 ± 29.2% | Decrease of the secretion of mature PCSK9 [3]: 22.2 ± 4.9% | SREBP-2 protein level versus the control [4]: 130.4 ± 16.4% | Decrease of PCSK9 protein level [5]: 29 ± 8.1%
